Reference: ChEMBL document CHEMBL1130702, “Novel cytotoxic diterpenes from the stem of Dysoxylum kuskusense” (Bioorg Med Chem Lett, 1998)

Tests used:
Type in all cases: functional, cell-based
Settings in all cases: Homo sapiens
[1] = test system: HL-60; assay: Compound was tested for cytotoxicity against HL-60(TB) leukemia tumor cell line
[2] = test system: HL-60; assay: Compound was tested for cytotoxicity against HL-60 (TB) cell line
[3] = test system: K562; assay: Compound was tested for cytotoxicity against K-562 (leukemia) cell line
[4] = test system: NCI-H522; assay: Compound was tested for cytotoxicity against NCI-H522 (lung tumor)cell line

SMILES | EC50 [1] [µM] | EC50 [2] [µM] | EC50 [3] [µM] | EC50 [4] [µM]
CC1=CC(=O)C[C@@]2(C)CC[C@@H](C(C)CC(=O)CC(C)C)C[C@@]12OO (stereo not given in full) | 2.37 | – | – | –
CC1=CC(=O)C[C@]2(C)CC[C@@H](C(C)CC(=O)CC(C)C)C[C@@H]12 (stereo not given in full) | – | 2.25 | 5.04 | 4.8
CC1=CC(=O)C[C@]2(C)CC[C@@H](C(C)CC(=O)CC(C)C)C[C@@]12OO (stereo not given in full) | 6.35 | – | – | –
